From patent publication US20250268884A1, “Deuterated Domperidone for Treating Gastroparesis” (CinDome Pharma, Inc., priority 2022, published 2025)

System: adults with idiopathic or diabetic gastroparesis
Experiment: Safety: adverse events, laboratory values, vital signs, Phase 2a
[1] = 5 mg BID (N = 9), Safety Population

Method: Safety was evaluated through assessments of Aes, vital signs, physical examinations, clinical laboratory evaluations (including prolactin), and ECG findings. Additionally, a single, optional PGx blood sample may have been collected at any time during the subject's participation in the study.
Safety variables included Aes, clinical laboratory results (including prolactin), vital signs, ECGs, and physical examination findings.

With [2H]c1c([2H])c([2H])c2c([nH]c(=O)n2CCCN2CCC(n3c(=O)[nH]c4cc(Cl)ccc43)CC2)c1[2H] [Deudomperidone, 1-{3-[4-(5-chloro-2-oxo-2,3-dihydro-1H-1,3-benzodiazol-1-yl)piperidin-1yl]propyl}-2,3-dihydro(4,5,6,7-D4)-1H-1,3-benzodiazol-2-one] the TEAEs reported (5 mg BID) was 1 TEAE, the “other TEAE: abdominal pain lower” value (5 mg BID) was 1 subject each and the “other study drug-related TEAE: abdominal pain lower” value (5 mg BID) was 1 subject each. The “study drug-related TEAEs reported” value (5 mg BID) was 1 TEAE, the “subjects with study drug-related TEAEs” value (5 mg BID) was 1 (11.1%) subjects (%) and the “Study drug-related TEAE Abdominal pain lower, %” value (5 mg BID (N = 9)) was “(11.1) %”. The “Study drug-related TEAE Blood creatine phosphokinase increased, %” value (5 mg BID (N = 9)) was “(0.0) %”, the “Study drug-related TEAE Cardiac disorders, %” value (5 mg BID (N = 9)) was “(0.0) %” and the “Study drug-related TEAE Diarrhoea, %” value (5 mg BID (N = 9)) was “(0.0) %”. For the same compound, the “Study drug-related TEAE Ear and labyrinth disorders, %” value (5 mg BID (N = 9)) was “(0.0) %”, the “Study drug-related TEAE Electrocardiogram QT prolonged, %” value (5 mg BID (N = 9)) was “(0.0) %” and the “Study drug-related TEAE Gastrointestinal disorders, %” value (5 mg BID (N = 9)) was “(11.1) %”. The “Study drug-related TEAE Headache, %” value (5 mg BID (N = 9)) was “(0.0) %”, the “Study drug-related TEAE Investigations, %” value (5 mg BID (N = 9)) was “(0.0) %” and the “Study drug-related TEAE Nausea, %” value (5 mg BID (N = 9)) was “(0.0) %”. The “Study drug-related TEAE Nervous system disorders, %” value (5 mg BID (N = 9)) was “(0.0) %”, the “Study drug-related TEAE Palpitations, %” value (5 mg BID (N = 9)) was “(0.0) %” and the “Study drug-related TEAE Tinnitus, %” value (5 mg BID (N = 9)) was “(0.0) %”. For the same compound, the “Subjects with any TEAEs, %” value (5 mg BID (N = 9)) was 11.1%, the “Subjects with any TEAEs, e (events)” value (5 mg BID (N = 9)) was 1 and the “Subjects with any study drug-related TEAE, %” value (5 mg BID (N = 9)) was 11.1%. For the same compound, the “Subjects with any study drug-related TEAE, e (events)” value (5 mg BID (N = 9)) was 1, the “TEAE Abdominal pain lower, %” value (5 mg BID (N = 9)) was “(11.1) %” and the “TEAE Arthralgia, %” value (5 mg BID (N = 9)) was “(0.0) %”. For the same compound, the “TEAE Back pain, %” value (5 mg BID (N = 9)) was “(0.0) %”, the “TEAE Blood creatine phosphokinase increased, %” value (5 mg BID (N = 9)) was “(0.0) %” and the “TEAE Cardiac disorders, %” value (5 mg BID (N = 9)) was “(0.0) %”. The “TEAE Constipation, %” value (5 mg BID (N = 9)) was “(0.0) %”, the “TEAE Decreased appetite, %” value (5 mg BID (N = 9)) was “(0.0) %” and the “TEAE Diarrhoea, %” value (5 mg BID (N = 9)) was “(0.0) %”. The “TEAE Dyspepsia, %” value (5 mg BID (N = 9)) was “(0.0) %”, the “TEAE Ear and labyrinth disorders, %” value (5 mg BID (N = 9)) was “(0.0) %” and the “TEAE Electrocardiogram QT prolonged, %” value (5 mg BID (N = 9)) was “(0.0) %”. For the same compound, the “TEAE Gastrointestinal disorders, %” value (5 mg BID (N = 9)) was “(11.1) %”, the “TEAE Headache, %” value (5 mg BID (N = 9)) was “(0.0) %” and the “TEAE Hypoglycaemia, %” value (5 mg BID (N = 9)) was “(0.0) %”. For the same compound, the “TEAE Infections and infestations, %” value (5 mg BID (N = 9)) was “(0.0) %”, the “TEAE Investigations, %” value (5 mg BID (N = 9)) was “(0.0) %” and the “TEAE Metabolism and nutrition disorders, %” value (5 mg BID (N = 9)) was “(0.0) %”. For the same compound, the “TEAE Musculoskeletal and connective tissue disorders, %” value (5 mg BID (N = 9)) was “(0.0) %”, the “TEAE Nausea, %” value (5 mg BID (N = 9)) was “(0.0) %” and the “TEAE Nervous system disorders, %” value (5 mg BID (N = 9)) was “(0.0) %”. The “TEAE Palpitations, %” value (5 mg BID (N = 9)) was “(0.0) %”, the “TEAE Sinusitis, %” value (5 mg BID (N = 9)) was “(0.0) %” and the “TEAE Tinnitus, %” value (5 mg BID (N = 9)) was “(0.0) %”. For the same compound, the “TEAE Vomiting, %” value (5 mg BID (N = 9)) was “(0.0) %”, the “Any Aes, % of subjects” value [1] was “(11.1) %” and the “Any Aes, n subjects” value [1] was 1. For the same compound, the “Any TEAEs by maximum severity: Mild, % of subjects” value [1] was “(11.1) %”, the “Any TEAEs by maximum severity: Mild, n subjects” value [1] was 1 and the “Any TEAEs by maximum severity: Moderate, % of subjects” value [1] was “(0.0) %”. The “Any TEAEs by maximum severity: Moderate, n subjects” value [1] was 0, the “Any TEAEs by maximum severity: Severe, % of subjects” value [1] was “(0.0) %” and the “Any TEAEs by maximum severity: Severe, n subjects” value [1] was 0. For the same compound, the “Any TEAEs leading to death, % of subjects” value [1] was “(0.0) %”, the “Any TEAEs leading to death, n subjects” value [1] was 0 and the “Any TEAEs leading to discontinuation, % of subjects” value [1] was “(0.0) %”. For the same compound, the “Any TEAEs leading to discontinuation, n subjects” value [1] was 0, the “Any TEAEs, % of subjects” value [1] was 11.1% and the “Any TEAEs, e (number of events)” value [1] was 1. The “Any TEAEs, n subjects” value [1] was 1, the “Any serious TEAEs, % of subjects” value [1] was “(0.0) %” and the “Any serious TEAEs, n subjects” value [1] was 0. For the same compound, the “Any study drug-related TEAEs by maximum severity: Mild, % of subjects” value [1] was “(11.1) %”, the “Any study drug-related TEAEs by maximum severity: Mild, n subjects” value [1] was 1 and the “Any study drug-related TEAEs by maximum severity: Moderate, % of subjects” value [1] was “(0.0) %”. For the same compound, the “Any study drug-related TEAEs by maximum severity: Moderate, n subjects” value [1] was 0, the “Any study drug-related TEAEs by maximum severity: Severe, % of subjects” value [1] was “(0.0) %” and the “Any study drug-related TEAEs by maximum severity: Severe, n subjects” value [1] was 0. For the same compound, the “Any study drug-related TEAEs leading to discontinuation, % of subjects” value [1] was “(0.0) %”, the “Any study drug-related TEAEs leading to discontinuation, n subjects” value [1] was 0 and the “Any study drug-related TEAEs, % of subjects” value [1] was “(11.1) %”. The “Any study drug-related TEAEs, n subjects” value [1] was 1, the “Any study drug-related serious TEAEs, % of subjects” value [1] was “(0.0) %” and the “Any study drug-related serious TEAEs, n subjects” value [1] was 0. For the same compound, the “subjects who experienced a TEAE” value (5 mg BID, Safety Population) was 1 (11.1%) subjects (%), the TEAE diarrhoea (10 mg BID) was 3 (10.0%) subjects (%) and the “TEAE electrocardiogram QT prolonged” value (10 mg BID) was 1 (3.3%) subjects (%). For the same compound, the TEAE hypoglycaemia (10 mg BID) was 1 (3.3%) subjects (%), the TEAEs reported (10 mg BID) was 11 TEAEs and the “other TEAEs, each: nausea, vomiting, blood creatine phosphokinase increased, decreased appetite, palpitations, tinnitus” value (10 mg BID) was 1 subject each. The “other study drug-related TEAEs, each: nausea, blood creatine phosphokinase increased, palpitations, tinnitus” value (10 mg BID) was 1 subject each, the “study drug-related TEAE diarrhoea” value (10 mg BID) was 2 (6.7%) subjects (%) and the “study drug-related TEAEs reported” value (10 mg BID) was 6 TEAEs. The “subjects with study drug-related TEAEs” value (10 mg BID) was 4 (13.3%) subjects (%), the “Study drug-related TEAE Abdominal pain lower, %” value (10 mg BID (N = 30)) was “(0.0) %” and the “Study drug-related TEAE Blood creatine phosphokinase increased, %” value (10 mg BID (N = 30)) was “(3.3) %”. The “Study drug-related TEAE Cardiac disorders, %” value (10 mg BID (N = 30)) was “(3.3) %”, the “Study drug-related TEAE Diarrhoea, %” value (10 mg BID (N = 30)) was “(6.7) %” and the “Study drug-related TEAE Ear and labyrinth disorders, %” value (10 mg BID (N = 30)) was “(3.3) %”. For the same compound, the “Study drug-related TEAE Electrocardiogram QT prolonged, %” value (10 mg BID (N = 30)) was “(0.0) %”, the “Study drug-related TEAE Gastrointestinal disorders, %” value (10 mg BID (N = 30)) was “(10.0) %” and the “Study drug-related TEAE Headache, %” value (10 mg BID (N = 30)) was “(0.0) %”. For the same compound, the “Study drug-related TEAE Investigations, %” value (10 mg BID (N = 30)) was “(3.3) %”, the “Study drug-related TEAE Nausea, %” value (10 mg BID (N = 30)) was “(3.3) %” and the “Study drug-related TEAE Nervous system disorders, %” value (10 mg BID (N = 30)) was “(0.0) %”. The “Study drug-related TEAE Palpitations, %” value (10 mg BID (N = 30)) was “(3.3) %”, the “Study drug-related TEAE Tinnitus, %” value (10 mg BID (N = 30)) was “(3.3) %” and the “Subjects with any TEAEs, %” value (10 mg BID (N = 30)) was 20.0%. The “Subjects with any TEAEs, e (events)” value (10 mg BID (N = 30)) was 11, the “Subjects with any study drug-related TEAE, %” value (10 mg BID (N = 30)) was 13.3% and the “Subjects with any study drug-related TEAE, e (events)” value (10 mg BID (N = 30)) was 6. For the same compound, the “TEAE Abdominal pain lower, %” value (10 mg BID (N = 30)) was “(0.0) %”, the “TEAE Arthralgia, %” value (10 mg BID (N = 30)) was “(0.0) %” and the “TEAE Back pain, %” value (10 mg BID (N = 30)) was “(0.0) %”. For the same compound, the “TEAE Blood creatine phosphokinase increased, %” value (10 mg BID (N = 30)) was “(3.3) %”, the “TEAE Cardiac disorders, %” value (10 mg BID (N = 30)) was “(3.3) %” and the “TEAE Constipation, %” value (10 mg BID (N = 30)) was “(0.0) %”. For the same compound, the “TEAE Decreased appetite, %” value (10 mg BID (N = 30)) was “(3.3) %”, the “TEAE Diarrhoea, %” value (10 mg BID (N = 30)) was “(10.0) %” and the “TEAE Dyspepsia, %” value (10 mg BID (N = 30)) was “(0.0) %”. For the same compound, the “TEAE Ear and labyrinth disorders, %” value (10 mg BID (N = 30)) was “(3.3) %”, the “TEAE Electrocardiogram QT prolonged, %” value (10 mg BID (N = 30)) was “(3.3) %” and the “TEAE Gastrointestinal disorders, %” value (10 mg BID (N = 30)) was “(13.3) %”. The “TEAE Headache, %” value (10 mg BID (N = 30)) was “(0.0) %”, the “TEAE Hypoglycaemia, %” value (10 mg BID (N = 30)) was “(3.3) %” and the “TEAE Infections and infestations, %” value (10 mg BID (N = 30)) was “(0.0) %”. For the same compound, the “TEAE Investigations, %” value (10 mg BID (N = 30)) was “(6.7) %”, the “TEAE Metabolism and nutrition disorders, %” value (10 mg BID (N = 30)) was “(6.7) %” and the “TEAE Musculoskeletal and connective tissue disorders, %” value (10 mg BID (N = 30)) was “(0.0) %”.
